These results are taken from patent publication US20240292840A1, “TRIAZOLE COMPOUNDS FOR THE CONTROL OF INVERTEBRATE PESTS” (priority 2021, published 2024).

Test [1] deals with Boll Weevil (Anthonomus grandis). Briefly: B.5 Boll weevil egg/larval test on insect diet in microtiter plates. Format: in vivo. The note with it: 120 h, egg and larval mortality, 5 days, read-out: mortality in comparison with untreated controls. On the procedure:
B.5 Boll Weevil (Anthonomus grandis)
For evaluating control of boll weevil (Anthonomus grandis), the test unit consisted of 96-well-microtiter plates containing an insect diet and 5-10 A. grandis eggs.
The compounds were formulated using a solution containing 75% v/v water and 25% v/v DMSO. Different concentrations of formulated compounds were sprayed onto the insect diet at 5 μl, using a custom-built micro atomizer, at two replications.
After application, microtiter plates were incubated at about 25±1° C. and about 75±5% relative humidity for 5 days. Egg and larval mortality was then visually assessed.

The subject of test [2] is Yellow Fever Mosquito (Aedes aegypti). As to the kind of experiment: whole plant or invertebrate. Format: in vivo. The note with it: 48 h, larval mortality, 2 days, read-out: mortality in comparison with untreated controls. On the procedure:
B.8 Yellow Fever Mosquito (Aedes aegypti)
For evaluating control of yellow fever mosquito (Aedes aegypti) the test unit consisted of 96-well-microtiter plates containing 200 μl of tap water per well and 5-15 freshly hatched A. aegypti larvae.
The active compounds were formulated using a solution containing 75% (v/v) water and 25% (v/v) DMSO. Different concentrations of formulated compounds or mixtures were sprayed onto the insect diet at 2.5 μl, using a custom-built micro atomizer, at two replications.
After application, microtiter plates were incubated at 28±1° C., 80±5% RH for 2 days. Larval mortality was then visually assessed.

Turning to `C/C(=N/O)n1ncnc1C(C)NC(=O)c1cc(C(F)(F)F)cc(C(F)(F)F)c1` (centres unmarked) [I.1-1, N-[1-[2-[(Z)—N-hydroxy-C-methyl-carbonimidoyl]-1,2,4-triazol-3-yl]ethyl]-3,5-bis(trifluoromethyl)benzamide], in test [1], the mortality at 2500 ppm was at least 75%.
On to `CCON=C(C)n1ncnc1C(C)NC(=O)c1cc(Cl)cc(C(F)(F)F)c1` (centres unmarked) [I.1-12, 3-chloro-N-[1-[2-(N-ethoxy-C-methyl-carbonimidoyl)-1,2,4-triazol-3-yl]ethyl]-5-(trifluoromethyl)benzamide], for which the mortality at 2500 ppm in test [2] and in test [1] was at least 75% in each case.
As for `CC(=NOc1ccccc1)n1ncnc1C(C)NC(=O)c1cc(Cl)cc(C(F)(F)F)c1` (centres unmarked) [I.1-13, 3-chloro-N-[1-[2-[C-methyl-N-phenoxy-carbonimidoyl]-1,2,4-triazol-3-yl]ethyl]-5-(trifluoromethyl)benzamide], the mortality at 2500 ppm in test [2] was at least 75%.
Take `C/C(=N\O)n1ncnc1C(C)NC(=O)c1cc(C(F)(F)F)cc(C(F)(F)F)c1` (centres unmarked) [I.1-76, N-[1-[2-[(E)-N-hydroxy-C-methyl-carbonimidoyl]-1,2,4-triazol-3-yl]ethyl]-3,5-bis(trifluoromethyl)benzamide]: the mortality at 2500 ppm in test [1] is at least 75%.
